Drawing on patent publication US9018224B2, “Substituted cyclopropyl compounds useful as GPR119 agonists” (Merck Sharp & Dohme Corp., priority 2011, dated 2015), this text covers EC50 for 30 molecules.

Molecules are shown by their SMILES.

The EC50 is the concentration that produces a half-maximal response. High values mean lower potency in that assay, low ones higher potency in that assay.

The assay concerns the target T1, human GPR119 (Homo sapiens, UniProt Q8TDV5).
T1 sequence (Q8TDV5 1-308 limits assumed): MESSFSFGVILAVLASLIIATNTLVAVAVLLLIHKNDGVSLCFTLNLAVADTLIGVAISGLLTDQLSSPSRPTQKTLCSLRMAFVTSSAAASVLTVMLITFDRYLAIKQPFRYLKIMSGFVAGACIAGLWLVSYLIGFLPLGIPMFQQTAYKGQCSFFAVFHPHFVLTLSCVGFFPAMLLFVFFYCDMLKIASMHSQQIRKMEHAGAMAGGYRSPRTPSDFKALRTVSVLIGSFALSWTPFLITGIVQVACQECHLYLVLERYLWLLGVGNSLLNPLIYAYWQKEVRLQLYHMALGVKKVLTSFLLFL
As to the kind of experiment: Measurement of GPR119 signaling by cAMP (LANCE cAMP kit or HTRF) in HEK293 cells transfected with human GPR119. In kind it is cell-based. To be noted: agonist cAMP response in HEK293 cells stably transfected with human GPR119; patent does not say which of the two cAMP formats (LANCE or HTRF). The procedure, abridged:
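LANCE TR-FRET cAMP readout; detection with Eu-SA/biotin-cAMP tracer for 3 h, signal converted to cAMP via standard curve, duplicates, 4-parameter fit vs DMSO basal and internal agonist maximum.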
In general terms: TR-FRET usually uses a lanthanide donor and a delayed reading to cut background.
Molecule `O=C(Cc1ccc(OCC[C@@H]2C[C@@H]2C2CCN(c3ncc(Cl)cn3)CC2)cc1F)N1CCc2[nH]nc(C(F)(F)F)c2C1` [Example 146] gave an EC50 of 3.1 nM.

Turning to `O=C(Cc1ccc(OCC[C@@H]2C[C@@H]2C2CCN(c3ncc(Cl)cn3)CC2)cc1F)N1CCC(F)(F)CC1` [Example 86], a half-maximal effect (EC50) was put at 0.8 nM.

`CCOc1cnc(N2CCC([C@H]3C[C@H]3CCOc3cc(F)c(CC(=O)N(C)C)c(F)c3)CC2)nc1` [Example 234] showed an EC50 of 0.26 nM.

Turning to `CCOCc1cnc(N2CCC([C@H]3C[C@H]3CCOc3ccc(CC(=O)N4CCC4)c(F)c3)CC2)nc1` [Example 200], the EC50 amounted to 0.79 nM.

`CC1c2cccn2CCN1C(=O)Cc1ccc(OCC[C@@H]2C[C@@H]2C2CCN(c3ncc(Cl)cn3)CC2)cc1F` (stereo partly drawn) [Example 174] gave an EC50 of 1.2 nM. Against the preceding molecule, the EC50 is about 1.5-fold higher.

Molecule `COCc1cnc(N2CCC([C@H]3C[C@H]3CCOc3ccc(CC(=O)N4CCC4)cc3F)CC2)nc1` [Example 251] came in with an EC50 of 5.5 nM.

As to `COCc1ccc(N2CCC([C@H]3C[C@H]3CCOc3ccc(CC(=O)N4CCC4)c(F)c3)CC2)nc1` [Example 237, 1-(azetidin-1-yl)-2-(2-fluoro-4-{2-[(1S,2R)-2-{1-[5-(methoxymethyl)pyridin-2-yl]piperidin-4-yl}cyclopropyl]ethoxy}phenyl)ethanone], a half-maximal response (EC50) required 0.94 nM. Against the preceding molecule, the EC50 is about 5.9-fold lower.

In turn, `CC1CCC(C)N1C(=O)Cc1ccc(OCC[C@@H]2C[C@@H]2C2CCN(c3ncc(Cl)cn3)CC2)cc1F` (stereo partly drawn) [Example 90] showed an EC50 of 7.2 nM. Compared with the last molecule, the EC50 is about 7.7-fold higher.

Turning to `O=C(Cc1ccc(OCC[C@@H]2C[C@@H]2C2CCN(c3ncc(Cl)cn3)CC2)cc1)N1CCCC1` [Example 3], the response was half-maximal at 2.1 nM (EC50).

Molecule `COc1cnc(N2CCC([C@H]3C[C@H]3CCOc3ccc(CC(=O)N4CC(F)(F)C4)c(F)c3)CC2)nc1` [Example 40] displayed an EC50 of 0.42 nM.

As for `O=C(Cc1ccc(OCC[C@@H]2C[C@@H]2C2CCN(c3ncc(Cl)cn3)CC2)cc1F)N1CCc2[nH]nnc2C1` [Example 152], the EC50 worked out at 1.9 nM.

The molecule `O=C(Cc1ccc(OCC[C@@H]2C[C@@H]2C2CCN(c3ncc(Cl)cn3)CC2)cc1F)NCC1CC1` [Example 77, 2-[4-(2-(1S,2R)-2-[1-(5-chloropyrimidin-2-yl)piperidin-4-yl]cyclopropylethoxy)-2-fluorophenyl]-N-(cyclopropylmethyl)acetamide] gave an EC50 of 1.5 nM.

In turn, `COCc1cnc(N2CCC([C@H]3C[C@H]3CCOc3ccc(CC(=O)N4CC(C)(O)C4)c(F)c3)CC2)nc1` [Example 44] showed an EC50 of 3.6 nM.

Turning to `COC(=O)Cc1ccc(OCC[C@@H]2C[C@@H]2C2CCN(c3ncc(Cl)cn3)CC2)cc1F` [Example 61], a half-maximal response (EC50) required 0.7 nM.

In turn, `COc1cnc(N2CCC([C@H]3C[C@H]3CCOc3ccc(CC(=O)N4CC(O)C4)c(F)c3)CC2)nc1` [Example 33, 2-[2-fluoro-4-(2-{(1S,2R)-2-[1-(5-methoxypyrimidin-2-yl)piperidin-4-yl]cyclopropyl}ethoxy)phenyl]-1-(3-hydroxyazetidin-1-yl)ethanone] had an EC50 of 2.1 nM.

Consider `CCOCc1cnc(N2CCC([C@H]3C[C@H]3CCOc3ccc(CC(=O)N4CC(F)(F)C4)c(F)c3)CC2)nc1` [Example 202], for which the EC50 amounted to 0.3 nM.

As for `O=C(Cc1ccc(OCC[C@@H]2C[C@@H]2C2CCN(c3ncc(Cl)cn3)CC2)cc1Cl)N1CCC1` [Example 20, 1-(azetidin-1-yl)-2-[2-chloro-4-(2-{(1S,2R)-2-[1-(5-chloropyrimidin-2-yl)piperidin-4-yl]cyclopropyl}ethoxy)phenyl]ethanone], it took 0.32 nM to reach a half-maximal effect (EC50). This EC50 and that of the molecule before are within 1.5-fold of each other.

`CC1(NC(=O)Cc2ccc(OCC[C@@H]3C[C@@H]3C3CCN(c4ncc(Cl)cn4)CC3)cc2F)CC1` [Example 93]: the EC50 worked out at 3.7 nM.

Turning to `COCc1cnc(N2CCC([C@H]3CC3CCOc3cc(F)c(CCO)c(F)c3)CC2)nc1` (stereo in doubt) [Example 240, 2-{2,6-Difluoro-4-[2-((1R,2R)-2-{1-[5-(methoxymethyl)pyrimidin-2-yl]piperidin-4-yl}cyclopropyl)ethoxy]phenyl}ethanol], the EC50 was found to be 7.2 nM.

`Cc1nc2c(s1)CN(C(=O)Cc1ccc(OCC[C@@H]3C[C@@H]3C3CCN(c4ncc(Cl)cn4)CC3)cc1F)CC2` [Example 176] displayed an EC50 of 0.78 nM. Compared with the last molecule, the EC50 is about 9.2-fold lower.

For the molecule `COCc1cnc(N2CCC([C@H]3C[C@H]3CCOc3ccc(CC(=O)N4CCc5nc(C)oc5C4)c(F)c3)CC2)nc1` [Example 58], it took 1.2 nM to reach a half-maximal effect (EC50).

`O=C(Cc1ccc(OCC[C@@H]2C[C@@H]2C2CCN(c3ncc(Cl)cn3)CC2)cc1F)N1CCc2cncnc2C1` [Example 129] came in with an EC50 of 0.29 nM. Compared with the last molecule, the EC50 is about 4.1-fold lower.

In turn, `COCc1cnc(N2CCC([C@H]3C[C@H]3CCOc3ccc(CC(=O)N4CCCC4(F)F)c(F)c3)CC2)nc1` [Example 52] showed an EC50 of 0.36 nM.

Take `CCOc1cnc(N2CCC([C@H]3C[C@H]3CCOc3cc(F)c(CC(=O)N4CCOCC4)c(F)c3)CC2)nc1` [Example 235]: it took 0.26 nM to reach a half-maximal effect (EC50).

Consider `COCc1cnc(N2CCC([C@H]3C[C@H]3CCOc3ccc(CC(=O)N4CC(C)(O)C4)c(Cl)c3)CC2)nc1` [Example 31], for which the midpoint of the response, the EC50, lay at 1.5 nM.

As to `COc1cnc(N2CCC([C@H]3C[C@H]3CCOc3cc(F)c(CC(=O)N4CCC4)c(F)c3)CC2)nc1` [Example 214], the EC50 turned out to be 0.2 nM.

With `O=C(Cc1ccc(OCC[C@@H]2C[C@@H]2C2CCN(c3ncc(Cl)cn3)CC2)cc1F)N1CCc2scnc2C1` [Example 172], the EC50 was determined as 0.6 nM.

`COCc1cnc(N2CCC([C@H]3C[C@H]3CCOc3ccc(Cc4nnco4)c(F)c3)CC2)nc1` [Example 246] displayed an EC50 of 7.7 nM.

In turn, `COCc1cnc(N2CCC([C@H]3C[C@H]3CCOc3ccc(CC(=O)N4CCOCC4)c(Cl)c3)CC2)nc1` [Example 32] gave an EC50 of 1.1 nM.

With `COc1cnc(N2CCC([C@H]3C[C@H]3CCOc3cc(F)c(CC(=O)N4CC(C)(O)C4)c(F)c3)CC2)nc1` [Example 212], the EC50 came to 0.88 nM. The EC50 values of the last two molecules are within 1.5-fold of each other.
